{
  "source": "paper PMC9415822",
  "about": "“Amphotericin B-PEG Conjugates of ZnO Nanoparticles: Enhancement Antifungal Activity with Minimal Toxicity” (Pharmaceutics, 2022)",
  "key": {"[1]": {"system": "Candida albicans ATCC 64548", "assay": "In vitro antifungal assay, broth microdilution (MIC/MFC), C. albicans", "format": "cell-based", "conditions": "ATCC64548, SDA plates, 37 °C, 48 h", "procedure": "The broth microdilution method was used to assess the antifungal susceptibility of free AMB, and ZnO, ZnO-AMB, and ZnO-AMB-PEG nanoparticles against Candida albicans ATCC 64548 and Cryptococcus neoformans ATCC 90112 according to the Clinical Laboratory and Standards Institute Guidelines (CLSI, 2015). The nanoparticle solutions were serially diluted in sterile saline to obtain dilutions ranging from 5.0 to 0.00625 µg/mL. Aliquots (100 µL) from different dilutions of different preparations were transferred to the wells of 96-well microtiter plate. Fresh cultures of the tested strains were suspended in RPMI 1640 provided with L-glutamine and MOPS at pH 7.0 to prepare suspensions with a turbidity approximating that of 0.5 McFarland Standard. The fungal suspensions were diluted 1:100 with RPMI 1640 to obtain cell density of 1 × 10^5 CFU/mL. Of the prepared fungal suspensions, 100 µL was added to all dilutions of nanoparticle preparations. […] The minimum inhibitory concentration (MIC) was considered as the lowest concentration that inhibited the visible turbidity. The experiment was repeated six times and both positive control (inoculated fungi in broth without any addition) and negative control (sterile broth without fungi) were included in the experiment. The minimum fungicidal concentration (MFC) was determined according to [23]."}, "[2]": {"system": "Cryptococcus neoformans ATCC 90112", "assay": "In vitro antifungal assay, broth microdilution (MIC/MFC), C. neoformans", "format": "cell-based", "procedure": "The broth microdilution method was used to assess the antifungal susceptibility of free AMB, and ZnO, ZnO-AMB, and ZnO-AMB-PEG nanoparticles against Candida albicans ATCC 64548 and Cryptococcus neoformans ATCC 90112 according to the Clinical Laboratory and Standards Institute Guidelines (CLSI, 2015). The nanoparticle solutions were serially diluted in sterile saline to obtain dilutions ranging from 5.0 to 0.00625 µg/mL. Aliquots (100 µL) from different dilutions of different preparations were transferred to the wells of 96-well microtiter plate. Fresh cultures of the tested strains were suspended in RPMI 1640 provided with L-glutamine and MOPS at pH 7.0 to prepare suspensions with a turbidity approximating that of 0.5 McFarland Standard. The fungal suspensions were diluted 1:100 with RPMI 1640 to obtain cell density of 1 × 10^5 CFU/mL. Of the prepared fungal suspensions, 100 µL was added to all dilutions of nanoparticle preparations. The microtiter plates were incubated at 37 °C for 24 h for C. albicans, and 48 h for C. neoformans. The minimum inhibitory concentration (MIC) was considered as the lowest concentration that inhibited the visible turbidity. […] The minimum fungicidal concentration (MFC) was determined according to [23]."}, "Male Wistar rats [3]": {"system": "Male Wistar rats", "assay": "In vivo toxicity: hematological parameters after injection", "parameters": "species or system rat", "conditions": "10 mg/kg intraperitoneal for seven days, blood on eighth day", "procedure": "(§1) Male Wistar rats weighing 180–220 g were used in this study. The animals were housed in rooms with controlled temperature (23 ± 1 °C) and relative humidity (55 ± 5%) and were allowed free access to water and food during acclimatization. Animals were fasted for 24 h before the experiments but could drink water ad libitum. The animal study protocol was approved by the Ethical Committee, Pharmacy College, Prince Sattam Bin Abdulaziz University, Al-Kharj, KSA (approval number: PHARM-11-10-2021).\n(§2) Blood parameters including count of leucocytes (WBC) and red blood cell (RBC), and hemoglobin concentration (Hb), and hemocrit percentage were employed to evaluate the hematological toxicity associated with AMB. Furthermore, the kidney functions were assessed by measuring blood urea nitrogen (BUN) and serum creatinine. Hepatic functions were evaluated by the measure of aspartate transaminase (AST) and alanine transaminase (ALT). Four groups of male Wistar rats, each composed of 5 rats weighing approximately 200 g were used in this study. Three groups were intraperitoneally injected with free AMB, ZnO-AMB or ZnO-AMB-PEG (10 mg/kg body weight) for a continuous seven days. The fourth group was left uninjected as control group. On the eighth day, all rats were anesthetized and euthanized by decapitation for hematological and biochemical assays."}, "Male Wistar rats [4]": {"system": "Male Wistar rats", "assay": "In vivo toxicity: biochemical parameters (kidney and liver functions) after injection", "parameters": "species or system rat", "conditions": "10 mg/kg intraperitoneal for seven days, eighth day", "procedure": "as §1, §2"}},
  "data": [
    {"smiles": "C[C@@H]1[C@H](O)[C@@H](C)/C=C/C=C/C=C/C=C/C=C/C=C/C=C/[C@H](O[C@@H]2O[C@H](C)[C@@H](O)[C@H](N)[C@@H]2O)C[C@@H]2O[C@](O)(C[C@@H](O)C[C@@H](O)[C@H](O)CC[C@@H](O)C[C@@H](O)CC(=O)O[C@H]1C)C[C@H](O)[C@H]2C(=O)O", "note": "[AMB, Amphotericin B]", "values": [
      {"measurement": "MFC", "setting": "[1]", "value": 0.6, "unit": "µg/mL"},
      {"measurement": "MIC", "setting": "[2]; ATCC90112, RPMI 1640, 37 °C, 48 h", "value": 0.05, "unit": "µg/mL"},
      {"measurement": "MFC", "setting": "[2]; ATCC90112, SDA plates, 37 °C, 72 h", "value": 0.4, "unit": "µg/mL"},
      {"measurement": "Hb", "setting": "Male Wistar rats [3]", "value": "13.22 ± 0.95", "unit": "g%"},
      {"measurement": "Hematocrit", "setting": "Male Wistar rats [3]", "value": "37.01 ± 2.68", "unit": "%"},
      {"measurement": "RBCs", "setting": "Male Wistar rats [3]", "value": "7.09 ± 0.61 ×10^6/μL"},
      {"measurement": "WBCs", "setting": "Male Wistar rats [3]", "value": "17.90 ± 2.46 ×10^3/μL"},
      {"measurement": "Kidney Functions BUN", "setting": "Male Wistar rats [4]", "value": "66.52 ± 12.46", "unit": "mg%"},
      {"measurement": "Kidney Functions Creatinine", "setting": "Male Wistar rats [4]", "value": "0.63 ± 0.11", "unit": "mg%"},
      {"measurement": "Liver Functions ALT", "setting": "Male Wistar rats [4]", "value": "100.49 ± 20.95", "unit": "IU/L"},
      {"measurement": "Liver Functions AST", "setting": "Male Wistar rats [4]", "value": "453.15 ± 120.19", "unit": "IU/L"}
    ]}
  ]
}
